Test results as given in ChEMBL document CHEMBL2073763, “Functional involvement of rat organic anion transporter 3 (rOat3; Slc22a8) in the renal uptake of organic anions” (J Pharmacol Exp Ther, 2002).

Columns and labels:
Type in all cases: functional, cell-based
[1] = target: T1, Organic anion transporter 3 (Rattus norvegicus, UniProt Q9R1U7); assay: TP_TRANSPORTER: inhibition of Pravastatin uptake in Oat3-expressing LLC-PK1 cells
T1 sequence (Q9R1U7 whole entry): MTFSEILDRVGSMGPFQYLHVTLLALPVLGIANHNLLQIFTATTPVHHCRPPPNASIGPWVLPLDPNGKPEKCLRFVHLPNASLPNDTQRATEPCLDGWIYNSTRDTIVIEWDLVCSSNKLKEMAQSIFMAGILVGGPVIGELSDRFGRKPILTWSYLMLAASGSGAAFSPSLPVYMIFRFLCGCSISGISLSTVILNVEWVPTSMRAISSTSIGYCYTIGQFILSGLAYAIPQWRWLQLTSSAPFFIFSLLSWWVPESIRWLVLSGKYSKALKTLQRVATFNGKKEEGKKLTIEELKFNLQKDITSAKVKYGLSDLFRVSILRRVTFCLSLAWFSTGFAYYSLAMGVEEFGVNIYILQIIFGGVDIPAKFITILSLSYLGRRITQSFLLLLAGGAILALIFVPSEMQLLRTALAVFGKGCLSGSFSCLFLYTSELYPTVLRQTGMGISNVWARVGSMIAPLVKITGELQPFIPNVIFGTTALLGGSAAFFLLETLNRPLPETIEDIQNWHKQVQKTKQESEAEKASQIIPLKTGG

[2] = target: T2, Solute carrier family 22 member 6 (Rattus norvegicus, UniProt O35956); assay: TP_TRANSPORTER: inhibition of PAH uptake in Oat1-expressing LLC-PK1 cells
T2 sequence (O35956 whole entry): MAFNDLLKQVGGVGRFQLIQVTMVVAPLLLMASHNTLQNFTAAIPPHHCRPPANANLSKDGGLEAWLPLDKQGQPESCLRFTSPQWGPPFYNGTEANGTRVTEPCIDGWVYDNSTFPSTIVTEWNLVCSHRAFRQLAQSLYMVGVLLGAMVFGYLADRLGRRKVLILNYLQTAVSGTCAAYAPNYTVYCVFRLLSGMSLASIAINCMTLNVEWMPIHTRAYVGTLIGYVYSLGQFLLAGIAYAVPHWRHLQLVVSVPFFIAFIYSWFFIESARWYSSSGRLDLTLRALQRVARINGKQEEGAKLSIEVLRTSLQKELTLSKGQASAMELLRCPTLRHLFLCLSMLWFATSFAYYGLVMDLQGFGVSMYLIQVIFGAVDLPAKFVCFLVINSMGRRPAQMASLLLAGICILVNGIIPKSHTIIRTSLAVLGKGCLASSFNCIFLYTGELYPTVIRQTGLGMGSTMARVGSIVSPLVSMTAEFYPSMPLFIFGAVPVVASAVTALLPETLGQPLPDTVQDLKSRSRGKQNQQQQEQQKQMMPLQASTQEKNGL

[3] = substrate: CC[C@H](C)C(=O)O[C@H]1C[C@H](O)C=C2C=C[C@H](C)[C@H](CC[C@@H](O)C[C@@H](O)CC(=O)O)[C@H]21; assay: TP_TRANSPORTER: uptake in Oat3-expressing LLC-PK1 cells

Molecule	Ki [1] [µM]	Ki [2] [µM]	Km [3] [µM]
O=C1OC(c2ccc(OS(=O)(=O)O)cc2)(c2ccc(OS(=O)(=O)O)cc2)c2c(Br)ccc(Br)c21 [DIBROMOSULFOPHTHALEIN]	3.09	2.74	–
CC1(C)S[C@@H]2[C@H](NC(=O)Cc3ccccc3)C(=O)N2[C@H]1C(=O)O [PENICILLIN G]	52.8	–	–
Nc1ccc(C(=O)NCC(=O)O)cc1 [AMINOHIPPURIC ACID]	1350	–	–
CC[C@H](C)C(=O)O[C@H]1C[C@H](O)C=C2C=C[C@H](C)[C@H](CC[C@@H](O)C[C@@H](O)CC(=O)O)[C@H]21 [PRAVASTATIN]	–	1150	–
Organic anion transporter 3 (Rattus norvegicus) (protein) MTFSEILDRVGSMGPFQYLHVTLLALPVLGIANHNLLQIFTATTPVHHCRPPPNASIGPWVLPLDPNGKPEKCLRFVHLPNASLPNDTQRATEPCLDGWIYNSTRDTIVIEWDLVCSSNKLKEMAQSIFMAGILVGGPVIGELSDRFGRKPILTWSYLMLAASGSGAAFSPSLPVYMIFRFLCGCSISGISLSTVILNVEWVPTSMRAISSTSIGYCYTIGQFILSGLAYAIPQWRWLQLTSSAPFFIFSLLSWWVPESIRWLVLSGKYSKALKTLQRVATFNGKKEEGKKLTIEELKFNLQKDITSAKVKYGLSDLFRVSILRRVTFCLSLAWFSTGFAYYSLAMGVEEFGVNIYILQIIFGGVDIPAKFITILSLSYLGRRITQSFLLLLAGGAILALIFVPSEMQLLRTALAVFGKGCLSGSFSCLFLYTSELYPTVLRQTGMGISNVWARVGSMIAPLVKITGELQPFIPNVIFGTTALLGGSAAFFLLETLNRPLPETIEDIQNWHKQVQKTKQESEAEKASQIIPLKTGG	–	–	13.4
